{"source": "patent US6174886A", "about": "“Antipsychotic use of triazolo-pyridazine derivatives” (Merck Sharp & Dohme Ltd., priority 1997, dated 2001)", "origin": "cited, not measured here", "system": "schizophrenic patients with an acute psychotic episode"}
{"smiles": "CC(C)(C)OC(=O)c1ncn2c1[C@@H]1CCCN1C(=O)c1c(Br)cccc1-2", "note": "[bretazenil]", "values": [{"measurement": "antipsychotic efficacy", "value": "moderate antipsychotic efficacy"}, {"measurement": "most frequent adverse reaction reported in the study", "value": "sedation"}]}
